The values below come from patent publication US12466834B2, “Imidazodiazepinediones and methods of use thereof” (GFB (ABC), LLC, priority 2018, dated 2025).

Molecules are shown by their SMILES. Bounds are passed on as bounds.

The target in this assay is T1, human TRPC5 (Homo sapiens, UniProt Q9UL62).
T1 construct: expressed in transfected cells
T1 sequence (Q9UL62 1-973): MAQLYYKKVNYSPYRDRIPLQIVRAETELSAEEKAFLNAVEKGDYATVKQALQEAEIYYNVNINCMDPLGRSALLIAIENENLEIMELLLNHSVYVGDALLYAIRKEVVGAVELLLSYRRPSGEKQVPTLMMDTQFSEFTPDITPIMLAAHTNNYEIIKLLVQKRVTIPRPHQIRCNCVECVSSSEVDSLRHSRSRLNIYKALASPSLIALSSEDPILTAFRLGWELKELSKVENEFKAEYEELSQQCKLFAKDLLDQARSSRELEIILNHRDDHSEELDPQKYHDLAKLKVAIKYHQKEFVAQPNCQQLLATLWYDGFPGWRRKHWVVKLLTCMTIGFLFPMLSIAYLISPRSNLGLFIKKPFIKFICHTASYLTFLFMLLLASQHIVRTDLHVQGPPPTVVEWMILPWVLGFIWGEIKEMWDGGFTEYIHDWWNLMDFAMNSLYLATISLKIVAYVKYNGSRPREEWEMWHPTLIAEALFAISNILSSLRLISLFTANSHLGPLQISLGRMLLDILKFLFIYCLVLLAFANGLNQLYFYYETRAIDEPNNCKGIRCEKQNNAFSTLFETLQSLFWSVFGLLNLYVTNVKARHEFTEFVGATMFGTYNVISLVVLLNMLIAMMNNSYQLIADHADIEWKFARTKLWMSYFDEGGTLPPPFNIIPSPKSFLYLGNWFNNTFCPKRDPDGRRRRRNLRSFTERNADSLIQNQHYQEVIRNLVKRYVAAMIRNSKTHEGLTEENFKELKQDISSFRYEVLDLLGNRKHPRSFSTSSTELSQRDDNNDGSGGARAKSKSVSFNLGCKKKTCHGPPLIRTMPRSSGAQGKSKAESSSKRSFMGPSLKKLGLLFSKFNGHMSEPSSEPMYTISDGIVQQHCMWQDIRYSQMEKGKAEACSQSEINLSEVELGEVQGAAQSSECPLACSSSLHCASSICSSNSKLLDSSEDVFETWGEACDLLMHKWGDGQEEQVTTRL
The assay is described as follows: FLIPR calcium assay, compound activation (agonism) of TRPC5 calcium response. Type of assay: cell-based. Further details: key to Agonist Potency Range (FLIPR): A=0.001-1 μM; B=1-10 μM; C=>1 μM; D=tested with a positive result for agonism, but EC50 not calculated. Particulars: ICLN-1633 cells, Fluo-4 calcium response; for EC50: read-out: Agonist Potency Range (FLIPR). On the procedure:
ICLN-1633 cells (HEK-TREx hTRPC5) expressing TRPC5 were generated as follows. Commercially available HekTrex-293 cells were seeded at 0.7×10^6 cells/well in a 1×6-well plate 24 hrs prior to transfection using 2 mL cell growth media containing no antibiotics (1× DMEM/high glucose (Hyclone #SH30022.02); 10% fetal bovine serum (Sigma) 2 mM sodium pyruvate, 10 mM HEPES). The human TRPC5 coding sequence (NM_012471 with a silent T478C mutation) was cloned into pcDNA5/TO (Invitrogen; Cat No. V103320) using hygromycin as the resistance gene and the plasmid (SEQ ID NO:1) propagated using T-Rex-293 cells (Invitrogen; Cat No. R71007) following manufacturer's directions. On day 2, 2 μg of plasmid DNA plus 6 μl of Xtreme-GENE HP reagent in Optimem (200 μl total volume) was prepared and incubated for 15 min at room temperature. This plasmid solution was then gently overlayed dropwise onto each well and the plate was gently swirled to mix complex with the media for approximately 30 seconds. Transfected cells were incubated at 37° C. in a 10% CO2 incubator for 24 hrs. The transfected cells were harvested and transferred into 2×150 mm dishes containing cell growth media with no antibiotics at 37° C.
Compounds were made up to, or supplied as a 10 mM stock solution generally using DMSO as the vehicle. 10-point dose response curves were generated using the Echo-550 acoustic dispenser. Compound source plates were made by serially diluting compound stocks to create 10 mM, 1 mM, and 0.1 mM solutions in DMSO into Echo certified LDV plates. The Echo then serially spotted 100% DMSO stock solutions into source dose response plates to generate a 4-fold dilution scheme. 100% DMSO was added to the spotted dose response plates to bring the final volume to 5 μl. 300 nl of the dose response stock plate was then spotted into pre-incubation and stimulation assay plates. 50 μl of pre-incubation buffer and 100 μl of stimulation buffer was then added to the plates resulting in a final assay test concentration range of 30 μM to 0.0001 μM with a final DMSO concentration of 0.3%.
Human ICLN-1633 cells expressing were plated onto 384 well, black poly-D-lysine-coated microplates and maintained in TRPC5 growth media the day prior to use for experiments. TRPC5 expression was induced by the application of 1 μg/mL tetracycline at the time of plating. Media was removed from the plates and 10 μl of 4 μM of Fluo-4 AM (mixed with equal volume of Pluronic F-127) in Earls's Balanced Salt Solution (EBSS) was added to the cells. Cells were incubated at room temperature, protected from light, for 60-90 minutes. After the incubation period, the dye was removed and replaced with 10 μl of EBSS. Cell, pre-incubation and stimulation plates were loaded onto the FLIPR-II and the assay was initiated. The FLIPR measured a 10 second baseline and then added 10 μl of 2× compounds (or controls). Changes in fluorescence were monitored for an additional 5 minutes. After the 5 minute pre-incubation, 20 μl of 2× riluzole (with 1× compound or controls) was added to the cell plate. The final riluzole stimulation concentration in the assay was 30 μM. After the riluzole addition, changes in fluorescence were monitored for an additional 5 minutes. Reduction in the riluzole-activated calcium response relative to control wells was reported as inhibition. A compound-mediated increase in the riluzole response relative to control riluzole response (no test agent present) with no enhancement of calcium entry during preincubation phase was reported as an agonist response.
Compound activation (agonism) of TRPC5 calcium response was determined as follows. After the initial compound addition, fluorescence was monitored for 5 minutes. The maximum relative fluorescence response (minus the control response of EBSS buffer alone) is captured and exported from the FLIPR. Compound activation is calculated using the following formula: […]

On to `C[C@@H]1C(=O)N(C)c2nc(Oc3cccc(F)c3)n(Cc3ccc(Cl)cc3)c2C(=O)N1CCCO` (single isomer, unassigned) [Compound 19], for which the “Agonist Potency Range (FLIPR)” value is recorded as “D”.

As to `O=C1c2c(nc(Oc3cccc(OC(F)(F)F)c3)n2Cc2ccc(Cl)cc2)N2CCC[C@H]2C(=O)N1CCCO` (single isomer, unassigned) [Compound 22], the EC50 was 1 to 10 µM.

Consider `O=C1c2c(nc(Oc3cccc(OC(F)(F)F)c3)n2Cc2ccc(Cl)cc2)N2CCC[C@@H]2C(=O)N1CCCO` (single isomer, unassigned) [Compound 23], for which the EC50 was > 10 µM.

On to `CN1CC(=O)N(CCCO)C(=O)c2c1nc(Oc1cccc(OC(F)(F)F)c1)n2Cc1ccc(Cl)cc1` [Compound 21, 1-[(4-chlorophenyl)methyl]-7-(3-hydroxypropyl)-4-methyl-2-[3-(trifluoromethoxy)phenoxy]-1H,4H,5H,6H,7H,8H-imidazo[4,5-e][1,4]diazepine-6,8-dione], for which the EC50 was > 10 µM.
